Results: patent US20250152605A1, “METHOD AND DRUG FOR TREATING NEURONAL CEROID LIPOFUSCINOSIS” (priority 2021, published 2025)

Columns and labels:
[1] = system: Cln3 KO mice; test: Body weight, brain tissue mass and toxicity in Cln3 KO mice
Description: The control group was Cln3 KO mice whose drinking water contained an equal amount of solvent. Body weight changes were recorded during administration.
Starting from day 21 on which the mice were weaned, Compound G or the solvent was added to the drinking water of Cln3 KO mice, and the weight changes of the mice were recorded. […] When the mice reached six months of age, they were euthanized and the brain tissues were taken out and weighed.

[2] = system: CLN3^Δex7/8 neural stem cells; test: Lysotracker staining of CLN3^Δex7/8 neural stem cells; assay type: cell-based, human
Description: The cells were stained with Lysotracker, a fluorescent dye that is enriched in acidic lysosomes and emits red fluorescence. The fluorescence intensity of the stained cells was then analyzed using flow cytometry.

[3] = system: CLN3^Δex7/8 neural stem cells; test: Immunofluorescence staining of neural stem cell lineage markers; assay type: cell-based, human; conditions: 48 hours of treatment
Description: Fixation: the cell medium was aspirated and the cells were washed once with dPBS, then 4% paraformaldehyde solution was added to fix the cells, which were then incubated at room temperature for 20 min and washed 3 times with dPBS for 5 min each; blocking and permeabilization: blocking solution (5% BSA and 0.3% Trinton-X100 dissolved in dPBS) was added, incubation at room temperature for 1 hour followed by washing with dPBS 3 times for 5 minutes each; primary antibody incubation: the antibody was diluted with dPBS containing 5% BSA according to the specification, incubated overnight at 4° C. or 2 hours at room temperature, and washed 3 times with dPBS for 5 minutes each; secondary antibody incubation: the secondary antibody of the corresponding species was diluted with dPBS containing 5% BSA at a ratio of 1:1000, incubated at room temperature for 1 hour, and then washed with dPBS 3 times for 5 minutes each; nuclear staining: DAPI was diluted to 100 ng/ml with dPBS, incubated at room temperature for 5 minutes, and washed 3 times with dPBS for 5 minutes each; imaging: imaging was performed using Olympus IX83 Inverted Motorized Microscope or Opera Phenix™ High Content Screening System.
After 48 hours of treatment of CLN3^Δex7/8 neural stem cells with Compound G, immunofluorescence staining was performed for the neural stem cell lineage markers SOX1, PAX6 and NESTIN.

[4] = system: mouse tail tip fibroblasts (TTF); test: qRT-PCR of autophagy-related and lysosomal genes in mouse tail tip fibroblasts; assay type: cell-based
Description: The cells in the cell-culture dish were collected, extracted using AxyPrep Total RNA Mini Prep Kit or Qiagen AxyPrep Total RNA Mini Prep Kit, and the extracted RNA concentration is measured using Nanodrop; the extracted mRNA was reverse transcribed into cDNA by Transgen's EasyScript® One-Step gDNA Removal and cDNA Synthesis SuperMix and the primers used for reverse transcription were Oligo dT primers; the completion of reverse transcription followed by qRT-PCR reaction through PerfectStart™ Green qPCR SuperMix to detect the expression of the target gene; the qRT-PCR reaction was performed on the Bio-Rad CFX96 Real-Time PCR system; see Table 2 and Table 3 for the 20 μL qRT-PCR reaction system and reaction procedures; data analysis was performed in Prism 7 software using the 2^−ΔΔCt process with GAPDH as internal reference for relative quantification of the expression of the target gene.
Compound G was added to the mouse tail tip fibroblasts (TTF), after incubation for 6 hours, mRNA was extracted, and the transcription level of the autophagy-related genes and the lysosomal genes in the cells was detected.
First, lentivirus packaged with control shRNA or FXR shRNA-2 was used to infect the mouse TTF. After treatment with Compound G, mRNA was extracted for detection of gene transcription.

[5] = Drug concentration in mouse brain tissue (UPLC-MS/MS); assay type: in vivo; conditions: Cln3 KO mice
Description: In order to determine whether Compound G can pass through the blood-brain barrier and its drug concentration in the brain tissue of mice, the following experiment was performed: Compound G was dissolved in drinking water at a concentration of 1 mg/mL and fed to mice, and a solvent was added to the drinking water of control mice; mice treated with Compound G were removed at 8 different random time points, and after Avertin anesthesia, their hearts were perfused with 20 mL dPBS to rinse the blood in the mice; non-dosed mice were also perfused in the same manner as blank tissue; whole mouse brain tissue was removed, weighed, snap frozen in liquid nitrogen and ground using Mixer Mill (RETSCH MM400) with a shaking frequency of 26 beats/sec for 5 minutes; a small molecule with similar structural properties to Compound G was prepared in advance as an internal reference (denoted IS) and IS was dissolved in 80% aqueous methanol to 100 ng/ml. […]
After using dPBS to completely perfuse the systemic blood, the mice were euthanized and the brain tissues thereof were taken out. The drug concentrations of Compound G in the mouse brain tissues were measured.

C/C=C1\C(=O)C[C@H]2[C@@H]3CCC4=CC(=O)CC[C@]4(C)[C@H]3CC[C@]12C [Compound G, (Z)-guggulsterone]
body weight of mice ([1]; 2 or 6 months old, drinking water from day 21): no significant effect
mass of the mice brain tissue ([1]; 6 months of age): no significant effect
Lysotracker staining in neural stem cells [2]: significantly improve the Lysotracker staining
neural stem cell lineage markers SOX1, PAX6 and NESTIN (cell fate) [3]: maintained the characteristics of SOX1, PAX6 and NESTIN positive
expression of the autophagy-related genes ([4]; TTF infected with FXR shRNA-2): failed to increase
transcription level of the autophagy-related genes and the lysosomal genes ([4]; TTF, incubation for 6 hours): significantly increase
expression of the autophagy-related genes ([4]; control shRNA-infected TTF): significantly increase
average concentration in the mouse brain ([5]; 1 mg/mL in drinking water, different time points (n=8)): 814.74±834.19 ng/g brain tissue
penetration of the blood-brain barrier ([5]; drinking water): could penetrate the blood-brain barrier
